{"source": "patent US11559526B2", "about": "“Drug effective for lymphogenous drug administrating method” (TOHOKU UNIVERSITY, priority 2016, dated 2023)", "key": {"KM-Luc/GFP cells": {"test_system": "KM-Luc/GFP cells", "experiment": "Anticancer activity after administration into the accessory axillary lymph node, mouse model of proper axillary lymph node metastasis (KM-Luc/GFP), luciferase imaging", "format": "in vivo", "design": "key to Luciferase activity ratio calculated by Expression 3: day9/day6 normalized luciferase ratio, 0 μg/g set to 100", "conditions": "for Luciferase activity ratio calculated by Expression 3: 0 μg/g set to 100", "description": "As a mouse model of lymphadenopathy, MXH10/Mo/lpr/lpr (MXH10/Mo/lpr) mice were prepared in accordance with the method previously reported (J Immunol Methods 2013; 389 (1-2): 69-78 doi 10.1016/j.jim.2013.01.004). In the following Examples, in total, 5 male and female model mice aged 15 to 18 weeks were used.\nMouse fibroblast-derived KM-Luc/GFP cells were prepared in accordance with the method previously reported (PLoS One 2013; 8 (2): e55797 doi 10.1371/journal.pone.0055797). The KM-Luc/GFP cells were obtained by transfecting MRL/MpTn-gld/gld mouse fibroblast-derived cancer cells, MRL/N1 cells, with pEGFPLuc plasmid. The KM-Luc/GFP cells constantly express a luciferase gene and a green fluorescent gene. In the following Examples, the cells were cultured in Dulbecco's modified Eagle's medium (manufactured by Sigma-Aldrich) containing 10% FBS (fetal bovine serum), 1% L-Glutamine-P.S. solution (manufactured by Thermo Fisher Scientific) and 0.5% G418 and put in use.\n(§1) KM-Luc/GFP (cancer) cells, which were prepared by thawing the cells stored at −80° C. and thereafter sub-culturing them twice in total, were suspended in PBS (phosphate buffered saline) and the concentration thereof was controlled to be 1.0×10^6 cells/mL. Thereafter, the cell suspension was mixed with Matrigel (basement membrane matrix, manufactured by Becton, Dickinson and Co.) and diluted to a concentration of 3.3×10^5 cells/mL, and then, the resultant (60 μL) was inoculated into mouse subiliac lymph node (FIG. 1). The day when the cancer cells were inoculated was specified as day 0.\n(§2) Using a biological fluorescence imaging system (IVIS manufactured by Caliper Life Science), the growth rates of cancer cells in the subiliac lymph node and proper axillary lymph node were determined on day 0, day 6 and day 9 after inoculation of the cancer cells. 200 μL of luciferin (manufactured by Promega), the concentration of which was controlled to be 15 mg/mL, was injected into the abdominal cavity of the mouse. Ten minutes later, luciferase activity was determined using the IVIS.\nOf the mice on day 6 after cancer cell inoculation, mice having a luciferase activity of 1.0×10^6 photons/sec or more in the proper axillary lymph node were selected, and 120 μL of 5-FU was administered to the accessory axillary lymph node at a rate of 10 μL/min by use of a syringe pump (KDS100, manufactured by Muromachi) (FIG. 1).\nThe luciferase activities on day 6 and day 9 were normalized in accordance with the following [Expression 1]. Thereafter, the ratio of the normalized luciferase activity on day 9 to that on day 6 was calculated in accordance with the following [Expression 2]. The ratio of the normalized luciferase activity on day 9 to that on day 6 at each administration concentration of 5-FU, when the ratio of the normalized luciferase activity on day 9 to that on day 6 at administration of 0 μg/g was set to 100, was calculated in accordance with the following [Expression 3]. Normalized luciferase activity on day 6 or day 9=((luciferase activity on day 6 or day 9)/(luciferase activity on day 0)) [Expression 1] Ratio of normalized luciferase activity on day 9 to that on day 6=((normalized luciferase activity on day 9)/(normalized luciferase activity on day 6)) [Expression 2] Ratio of normalized luciferase activity on day 9 to that on day 6 at each administration concentration of 5-FU, when the ratio of normalized luciferase activity on day 9 to that on day 6 at administration of 0 μg/g was set to 100,=((ratio of normalized luciferase activity on day 9 to that on day 6 at each administration concentration of 5-FU)/(ratio of normalized luciferase activity on day 9 to that on day 6 at administration of 0 μg/g)×100) [Expression 3] 3. Results […]\nThe same method as in Example 1 was employed except that the test drug to be administered to the accessary axillary lymph node was changed to doxorubicin."}, "FM3A-Luc cells": {"test_system": "FM3A-Luc cells", "experiment": "Anticancer activity of docetaxel administered into a lymph node, mouse model of proper axillary lymph node metastasis (FM3A-Luc), luciferase imaging", "format": "in vivo", "conditions": "for Luciferase activity ratio calculated by Expression 6 (day 6^T): day 6^T to day −1^T", "description": "Mouse breast cancer cell-derived FM3A-Luc cells were prepared in accordance with the method previously reported (J Immunol Methods 2013 Mar 29; 389 (1-2): 69-78. doi: 10.1016/j.jim.2013.01.004.). The FM3A-Luc cells were obtained by gene-introduction of pGL4.51 into FM3A cells by means of electroporation and constantly express a luciferase gene. In the following Examples, the cells were cultured in RPMI-1640 (manufactured by Sigma-Aldrich) containing 10% FBS (fetal bovine serum), 1% of an L-Glutamine-P.S. solution (manufactured by Theimo Fisher Scientific) and 0.5% of G418 and put in use.\nAs docetaxel, taxotere for intravenous infusion, 80 mg (manufactured by Sanofi K. K.) was used. Taxotere for intravenous infusion 80 mg (2 mL) was dissolved in 13% ethanol (6 mL) to prepare a 10 mg/mL stock solution. Thereafter, the stock solution was dissolved with sterile water in such a way that the concentration per mouse body-weight became 0 μg/g, 1 μg/g and 10 μg/g.\nas §1, with “FM3A-Luc (cancer) cells,” for “KM-Luc/GFP (cancer) cells,”, “thawing the cancer cells stored” for “thawing the cells stored”, “were suspended with PBS (phosphate” for “were suspended in PBS (phosphate”, “and diluted up to a” for “and diluted to a”\nas §2, with “7, day 14, day 17, day 20, day 23, day 26” for “6”, “29” for “9”\nTo a mouse confirmed to have a luciferase activity of 1.0×10^6 photons/sec or more in the proper axillary lymph node, docetaxel (120 μL) was administered to the accessory axillary lymph node on the day following confirmation at a rate of 10 μL/min by use of a syringe pump (KDS100, manufactured by Muromachi) (FIG. 1).\nThe day when docetaxel was administered was defined as day 0^T. The luciferase activity on day 3^T (3 days after administration of docetaxel) and the luciferase activity on day 6^T (6 days after administration of docetaxel) were normalized in accordance with the following [Expression 4]. Thereafter, the ratio of the normalized luciferase activity on day 3^T or day 6^T to that on day −1^T (the day when the luciferase activity in the proper axillary lymph node was confirmed to be 1.0×10^6 photons/sec or more and the day before docetaxel administration) was calculated in accordance with the following [Expression 5]. The ratio of the normalized luciferase activity on day 3^T or day 6^T to that on day −1^T at each administration concentration of docetaxel, when the ratio of the normalized luciferase activity on day 3^T or day 6^T to that on day −1^T at administration of 0 μg/g was set to 100, was calculated in accordance with the following [Expression 6]. […]"}, "cancer cell strain": {"test_system": "cancer cell strain", "conditions": "cited from earlier work"}, "[1]": {"test_system": "cancer-containing proper axillary lymph node (PALN)", "conditions": "administration through the subiliac lymph node (SiLN); cited from earlier work"}, "[2]": {"conditions": "0.1 μg/g into accessory axillary lymph node, day 9 to day 6 ratio in proper axillary lymph node"}, "[3]": {"conditions": "1 μg/g into accessory axillary lymph node, day 9 to day 6 ratio"}, "[4]": {"conditions": "10 μg/g into accessory axillary lymph node, day 9 to day 6 ratio"}}, "note": "Counter-ions that a name gives are not always drawn."}
{"compound": "O=c1[nH]cc(F)c(=O)[nH]1", "note": "[5-FU, 5-fluorouracil]", "values": [{"measurement": "Luciferase activity ratio calculated by Expression 3", "setting": "KM-Luc/GFP cells; [2]", "result": 9.27}, {"measurement": "Luciferase activity ratio calculated by Expression 3", "setting": "KM-Luc/GFP cells; [3]", "result": 9.12}, {"measurement": "Luciferase activity ratio calculated by Expression 3", "setting": "KM-Luc/GFP cells; [4]", "result": 1.49}, {"measurement": "tumor regression effect", "setting": "KM-Luc/GFP cells; dose 0.1 μg/g", "result": "≥ 90", "unit": "%"}]}
{"compound": "CCc1c2c(nc3ccc(OC(=O)N4CCC(N5CCCCC5)CC4)cc13)-c1cc3c(c(=O)n1C2)COC(=O)[C@]3(O)CC", "note": "[CPT-11, irinotecan hydrochloride]", "values": [{"measurement": "Luciferase activity ratio calculated by Expression 3", "setting": "KM-Luc/GFP cells; 0.5 μg/g into accessory axillary lymph node, day 9 to day 6 ratio", "result": 6.06}, {"measurement": "Luciferase activity ratio calculated by Expression 3", "setting": "KM-Luc/GFP cells; 5 μg/g into accessory axillary lymph node, day 9 to day 6 ratio", "result": 3.03}, {"measurement": "tumor regression effect", "setting": "KM-Luc/GFP cells; dose 0.5 μg/g", "result": "≥ 90", "unit": "%"}]}
{"compound": "CC(=O)O[C@@]12CO[C@@H]1C[C@H](O)[C@@]1(C)C(=O)[C@H](O)C3=C(C)[C@@H](OC(=O)[C@H](O)[C@@H](NC(=O)OC(C)(C)C)c4ccccc4)C[C@@](O)([C@@H](OC(=O)c4ccccc4)[C@H]21)C3(C)C", "note": "[Docetaxel, docetaxel]", "values": [{"measurement": "Luciferase activity ratio calculated by Expression 6 (day 6^T)", "setting": "FM3A-Luc cells; 1 μg/g into accessory axillary lymph node, 0 μg/g set to 100", "result": 7.5}, {"measurement": "Luciferase activity ratio calculated by Expression 6 (day 3^T)", "setting": "FM3A-Luc cells; 10 μg/g into accessory axillary lymph node, day 3^T to day −1^T, 0 μg/g set to 100", "result": 16.2}, {"measurement": "Luciferase activity ratio calculated by Expression 6 (day 6^T)", "setting": "FM3A-Luc cells; 10 μg/g into accessory axillary lymph node, 0 μg/g set to 100", "result": 1.7}, {"measurement": "tumor regression effect", "setting": "FM3A-Luc cells; dose 1 μg/g, day 6 after initiation of treatment", "result": "≥ 90", "unit": "%"}, {"measurement": "tumor reduction ratio", "setting": "FM3A-Luc cells; dose 10 μg/g", "result": "≥ 80", "unit": "%"}, {"measurement": "cell growth inhibitory activity of docetaxel compared with doxorubicin", "setting": "cancer cell strain", "result": "almost equal to that of doxorubicin"}]}
{"compound": "COc1cccc2c1C(=O)c1c(O)c3c(c(O)c1C2=O)C[C@@](O)(C(=O)CO)C[C@@H]3O[C@H]1C[C@H](N)[C@H](O)[C@H](C)O1", "note": "[Doxorubicin, doxorubicin hydrochloride]", "values": [{"measurement": "anticancer effect in the proper axillary lymph node", "setting": "[1]", "result": "resulted in an anticancer effect"}, {"measurement": "cell growth inhibitory activity (GI50 value) of doxorubicin, times as high as those of 5-FU and CPT-11", "setting": "cancer cell strain", "result": "10 to 1,000 times"}, {"measurement": "Luciferase activity ratio calculated by Expression 3", "setting": "KM-Luc/GFP cells; [2]", "result": 40.9}, {"measurement": "Luciferase activity ratio calculated by Expression 3", "setting": "KM-Luc/GFP cells; [3]", "result": 43.2}, {"measurement": "Luciferase activity ratio calculated by Expression 3", "setting": "KM-Luc/GFP cells; [4]", "result": 75.0}, {"measurement": "best tumor reduction ratio", "setting": "KM-Luc/GFP cells; dose 1 μg/g", "result": "less than 60%"}, {"measurement": "tumor reduction ratio", "setting": "KM-Luc/GFP cells; dose 10 μg/g", "result": "about 25%"}]}
